Test systems include SK-OV-3 ovarian; ACHN renal; OVCAR-8 ovarian; 786-0 renal; MOLT-4 leukemia; HCC-2998 colon; SNB-19 CNS; HCT-15 colon; MALME-3M melanoma; DU-145 prostate.
What all share (experiment): NCI anticancer screen, dose series, 48 h

SMILES strings stand for the structures. Where “and” joins values, the source holds several entries; their conditions need not be identical. Identical values can stand only once.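 Five concentrations, 48 hours, 96-well plates. Here, GI50 denotes the concentration required for 50% inhibition of growth. Definition used: TGI = concentration required for complete inhibition of growth.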

Turning to `CN=C(NC#N)NCCSCc1nc[nH]c1C`, the TGI in the assay with SK-OV-3 ovarian, in the assay on ACHN renal, in the assay on OVCAR-8 ovarian, with 786-0 renal, with MOLT-4 leukemia and with HCC-2998 colon was over 100 µM throughout. Besides, the TGI in the assay with SNB-19 CNS, with HCT-15 colon, in the assay with MALME-3M melanoma and with DU-145 prostate was over 100 µM each time.

Turning to `Cc1cnc(/C=N\NC(N)=S)c2cccc(N)c12`, the GI50 in the assay on SK-OV-3 ovarian was 3.14 µM; with ACHN renal, 1.51 µM; in the assay with OVCAR-8 ovarian, 2.66 µM; with 786-0 renal, 0.867 µM and 0.501 µM; in the assay with MOLT-4 leukemia, 1.5 µM; with SNB-19 CNS it was 3.42 µM. For the same molecule, the results for the GI50 in the assay with HCT-15 colon, with MALME-3M melanoma and in the assay with DU-145 prostate were 3.59 µM, 3.53 µM and 1.68 µM, respectively. In addition, the TGI is over 100 µM with SK-OV-3 ovarian; over 30.9 µM in the assay with ACHN renal; over 100 µM in the assay on OVCAR-8 ovarian; over 100 µM in the assay on MOLT-4 leukemia; over 100 µM in the assay with HCC-2998 colon; over 100 µM in the assay with SNB-19 CNS. Moreover, the TGI with HCT-15 colon, with MALME-3M melanoma and in the assay with DU-145 prostate was over 100 µM throughout.

On to `C[C@@H]1CC[C@@H]2[C@@H]1[C@H](OC(=O)/C=C/c1ccccc1)[C@]1(C3CCCCC3)C[C@@H](NC(=O)CO)[C@@]2(C)O1`, for which the GI50 with SK-OV-3 ovarian was 17.9 µM; in the assay on ACHN renal, 3.51 µM; in the assay with OVCAR-8 ovarian, 16.3 µM; in the assay on 786-0 renal it was 14.9 µM; in the assay with MOLT-4 leukemia, 18.5 µM; in the assay with HCC-2998 colon it was 18.3 µM. Further, the GI50 in the assay with SNB-19 CNS was 17.6 µM; with HCT-15 colon, 15.8 µM; in the assay with MALME-3M melanoma it was 16.3 µM; in the assay on DU-145 prostate it was 18.4 µM. For the same molecule, the TGI in the assay with SK-OV-3 ovarian came to 32.1 µM; in the assay with ACHN renal, 13.1 µM; with OVCAR-8 ovarian it was 32 µM; in the assay on 786-0 renal, 29.3 µM; with MOLT-4 leukemia, 39.3 µM; in the assay on HCC-2998 colon, 35.1 µM. The TGI with SNB-19 CNS came out at 32.3 µM; with HCT-15 colon, 33.2 µM; in the assay with MALME-3M melanoma, 33 µM; in the assay with DU-145 prostate, 32.9 µM.

On to `N#Cc1ccc(N2Cc3ccccc3OC3=C2C(=O)c2c(O)ccc(O)c2C3=O)cc1`, for which the GI50 is 2.99 µM in the assay on SK-OV-3 ovarian; 0.0547 µM in the assay on ACHN renal; 0.336 µM in the assay on OVCAR-8 ovarian; 0.145 µM in the assay with 786-0 renal; 0.102 µM in the assay on MOLT-4 leukemia; 0.762 µM with HCC-2998 colon. The GI50 in the assay on SNB-19 CNS is 1.09 µM; with HCT-15 colon, 0.174 µM; in the assay on MALME-3M melanoma, 0.0837 µM; in the assay on DU-145 prostate, 0.307 µM. Besides, the TGI in the assay on SK-OV-3 ovarian came out at 11.9 µM; with ACHN renal, 0.16 µM; with OVCAR-8 ovarian, 2.5 µM; in the assay with 786-0 renal, 0.381 µM; in the assay with MOLT-4 leukemia, 0.76 µM; in the assay on HCC-2998 colon, 1.79 µM. The TGI was 5.05 µM in the assay on SNB-19 CNS, 0.618 µM in the assay on HCT-15 colon, 0.264 µM in the assay with MALME-3M melanoma and 0.919 µM with DU-145 prostate.

As to `CCOC(=O)/C=C/c1cc2cc(-c3csc4ccccc34)ccc2[nH]1`, the GI50 in the assay on SK-OV-3 ovarian is 15.2 µM; with ACHN renal, 7.15 µM; in the assay with OVCAR-8 ovarian it was 3.79 µM; in the assay on 786-0 renal, 11.3 µM; in the assay on MOLT-4 leukemia, 2.44 µM; in the assay with HCC-2998 colon, 14.4 µM. Moreover, the GI50 with SNB-19 CNS was 16 µM; in the assay on HCT-15 colon, 3.59 µM; with MALME-3M melanoma, 6.81 µM; with DU-145 prostate, 4.83 µM. The TGI in the assay with SK-OV-3 ovarian came to 28.7 µM; in the assay on ACHN renal it was 20.1 µM; with OVCAR-8 ovarian it was 13.7 µM; in the assay with 786-0 renal it was 26.9 µM; in the assay with MOLT-4 leukemia it was 10.4 µM; in the assay on HCC-2998 colon, 30.2 µM. The TGI in the assay with SNB-19 CNS came out at 33.5 µM; in the assay with HCT-15 colon it was 15.8 µM; in the assay on MALME-3M melanoma it was 20.5 µM; with DU-145 prostate, 16.6 µM.

For the molecule `CC(=O)c1cc2c(cc1Nc1c3ccccc3nc3occ(Cl)c13)OCO2`, the GI50 in the assay with SK-OV-3 ovarian was 0.781 µM; in the assay with ACHN renal it was 0.46 µM; with OVCAR-8 ovarian it was 0.205 µM; in the assay on 786-0 renal, 0.291 µM; in the assay on MOLT-4 leukemia it was 0.198 µM; with HCC-2998 colon, 0.187 µM. Moreover, the GI50 is 0.601 µM with SNB-19 CNS, 0.328 µM in the assay with HCT-15 colon, 0.0796 µM in the assay with MALME-3M melanoma and 0.227 µM in the assay with DU-145 prostate. Also, the TGI in the assay on SK-OV-3 ovarian is over 100 µM; in the assay with ACHN renal it was over 100 µM; with OVCAR-8 ovarian, 0.766 µM; with 786-0 renal it was over 44.3 µM; with MOLT-4 leukemia, over 100 µM; with HCC-2998 colon, 0.37 µM. In addition, the TGI in the assay with SNB-19 CNS is over 100 µM; in the assay with MALME-3M melanoma, 0.45 µM.

As to `O=C(Nc1ccc(Cl)cc1F)c1cc(I)ccc1O`, the GI50 with SK-OV-3 ovarian was 0.132 µM; in the assay with ACHN renal, 1.81 µM; in the assay with OVCAR-8 ovarian it was 2.02 µM; in the assay with 786-0 renal it was 2.98 µM; with MOLT-4 leukemia, 2.41 µM; in the assay with HCC-2998 colon, 3.1 µM. For the same molecule, the GI50 in the assay with SNB-19 CNS was 0.714 µM; in the assay on HCT-15 colon, 2.41 µM; in the assay with MALME-3M melanoma, 0.608 µM; in the assay on DU-145 prostate, 3.1 µM. Moreover, the TGI in the assay on SK-OV-3 ovarian worked out at 1.24 µM; with ACHN renal it was 10.1 µM; with OVCAR-8 ovarian it was 9.96 µM; with 786-0 renal, 9.24 µM; in the assay with MOLT-4 leukemia, 6.89 µM; with HCC-2998 colon, 11.9 µM. The TGI was determined as 92 µM in the assay on SNB-19 CNS, 10.2 µM in the assay with HCT-15 colon, 3.87 µM in the assay on MALME-3M melanoma and 47.9 µM with DU-145 prostate.

Turning to `CCN1C(=O)NC(=O)C(C)(N2C(=O)c3c(F)c(F)c(F)c(F)c3C2=O)C1=O` (stereo unspecified), the GI50 is 10.1 µM with SK-OV-3 ovarian; 2.03 µM with ACHN renal; 3.55 µM in the assay on OVCAR-8 ovarian; 4.49 µM with 786-0 renal; 2.44 µM in the assay with MOLT-4 leukemia; 2.52 µM with HCC-2998 colon. Also, the GI50 in the assay on SNB-19 CNS is 9.49 µM; in the assay on HCT-15 colon, 2.86 µM; with MALME-3M melanoma it was 2.06 µM; in the assay with DU-145 prostate it was 3.13 µM. Moreover, the TGI in the assay on SK-OV-3 ovarian worked out at 24.6 µM; with ACHN renal, 3.94 µM; with OVCAR-8 ovarian, 22.6 µM; in the assay on 786-0 renal, 17.7 µM; in the assay on MOLT-4 leukemia, 10.1 µM; in the assay with HCC-2998 colon, 7.77 µM. Besides, the TGI with SNB-19 CNS came to 24.9 µM; in the assay on HCT-15 colon it was 11.1 µM; in the assay on MALME-3M melanoma, 5.48 µM; in the assay on DU-145 prostate it was 11.6 µM.
